# Source: ChEMBL document CHEMBL4507326, “Data for DCP probe TP-030-2” (2021)
# Calls of active or inactive are those of the source. The calls are words filed in the database; no cut-off is given here.
# What was measured:
# [1] = biological target: Cysteinyl leukotriene receptor 1 (Homo sapiens) (UniProt Q9Y271); test: Inhibition of Leukotriene, Cysteinyl CysLT1 at 10 µM in the Eurofins-Panlabs radioligand binding assay (Eurofins_assay_250460); design: ligand concentration 0.3 nM, non-specific ligand with concentration 0.3 µM Leukotriene D4, incubation time 30 min, incubation temperature 25 °C; settings: Compound concentration 10.0 uM
# [2] = biological target: Substance-P receptor (Homo sapiens) (UniProt P25103); test: Inhibition of Tachykinin NK1 at 10 µM in the Eurofins-Panlabs radioligand binding assay (Eurofins_assay_255520); design: ligand concentration 0.8 nM; settings: Compound concentration 10.0 uM
# [3] = biological target: D(1B) dopamine receptor (Homo sapiens) (UniProt P21918); test: Dopamine D5 Eurofins-Panlabs radioligand binding assay; settings: Compound concentration 10.0 uM
# [4] = biological target: Receptor-interacting serine/threonine-protein kinase 1 (Homo sapiens, UniProt Q13546); test: TR-FRET (human RIPK1)
# [5] = biological target: Alpha-1B adrenergic receptor (Homo sapiens) (UniProt P35368); test: Adrenergic alpha1B Eurofins-Panlabs radioligand binding assay; design: ligand concentration 0.2 nM; settings: Compound concentration 10.0 uM
# [6] = biological target: Calcium/calmodulin-dependent protein kinase type 1G (Homo sapiens, UniProt Q96NX5); test: CaMK1gamma(CA1GLGN1) Takeda global kinase panel
# Sequence of Calcium/calmodulin-dependent protein kinase type 1G (Q96NX5 whole entry): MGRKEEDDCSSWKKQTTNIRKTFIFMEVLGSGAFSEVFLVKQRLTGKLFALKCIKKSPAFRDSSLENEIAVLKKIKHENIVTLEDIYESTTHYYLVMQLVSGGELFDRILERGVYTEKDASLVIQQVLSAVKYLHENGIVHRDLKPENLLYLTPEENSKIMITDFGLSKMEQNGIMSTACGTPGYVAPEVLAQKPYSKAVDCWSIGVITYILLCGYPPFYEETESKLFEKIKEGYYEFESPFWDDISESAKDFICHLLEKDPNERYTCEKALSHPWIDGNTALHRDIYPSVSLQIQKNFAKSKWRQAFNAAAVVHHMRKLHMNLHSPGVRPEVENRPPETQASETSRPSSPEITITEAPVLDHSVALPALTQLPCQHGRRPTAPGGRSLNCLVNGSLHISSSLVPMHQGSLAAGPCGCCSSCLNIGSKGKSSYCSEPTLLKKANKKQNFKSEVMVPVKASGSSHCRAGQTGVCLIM
# [7] = biological target: Cyclin-dependent kinase 1 (Homo sapiens, UniProt P06493); test: CDC2 [CDK1(CDK1CGS1)] Takeda global kinase panel
# [8] = biological target: Cyclin-dependent kinase 14 (Homo sapiens, UniProt O94921); test: PFTAIRE1(CD14CGS1) Takeda global kinase panel
# [9] = biological target: Cyclin-dependent kinase 5 (Homo sapiens, UniProt Q00535); test: CDK5(CDK5CGS1) Takeda global kinase panel
# [10] = biological target: Casein kinase I isoform delta (Homo sapiens, UniProt P48730); test: CK1delta(CS1DLGI1) Takeda global kinase panel
# [11] = biological target: Interferon-induced, double-stranded RNA-activated protein kinase (Homo sapiens, UniProt P19525); test: PKR(EIK2LGY1) Takeda global kinase panel
# Ephrin type-B receptor 1 = Ephrin type-B receptor 1 (Homo sapiens, UniProt P54762); test: EphB1(EPB1LGY1) Takeda global kinase panel
# [12] = biological target: Tyrosine-protein kinase Fer (Homo sapiens, UniProt P16591); test: Fer(FER1LGY1) Takeda global kinase panel
# [13] = biological target: Receptor-type tyrosine-protein kinase FLT3 (Homo sapiens, UniProt P36888); test: FLT3(FLT3MGE1) Takeda global kinase panel
# [14] = biological target: Tyrosine-protein kinase HCK (Homo sapiens, UniProt P08631); test: HCK(HCK1LGF1) Takeda global kinase panel
# [15] = biological target: Vascular endothelial growth factor receptor 2 (Homo sapiens, UniProt P35968); test: KDR(KDR1CGY1) Takeda global kinase panel
# [16] = biological target: Serine/threonine-protein kinase LATS1 (Homo sapiens, UniProt O95835); test: LATS1(LAT1LGRJ) Takeda global kinase panel
# LIM domain kinase 1 = LIM domain kinase 1 (Homo sapiens, UniProt P53667); test: LIMK1(LIM1LGY1) Takeda global kinase panel
# [17] = biological target: Mitogen-activated protein kinase 6 (Homo sapiens, UniProt Q16659); test: ERK3(MAP6LHY1) Takeda global kinase panel
# [18] = biological target: MAP/microtubule affinity-regulating kinase 3 (Homo sapiens, UniProt P27448); test: MARK3(MAR3LGO5) Takeda global kinase panel
# [19] = biological target: Microtubule-associated serine/threonine-protein kinase 1 (Homo sapiens, UniProt Q9Y2H9); test: MAST1(MAS1LGE5) Takeda global kinase panel
# [20] = biological target: Serine/threonine-protein kinase PAK 5 (Homo sapiens, UniProt Q9P286); test: PAK5(PAK7LGF1) Takeda global kinase panel
# [21] = biological target: Platelet-derived growth factor receptor beta (Homo sapiens, UniProt P09619); test: PDGFRbeta(PDGBIHC1) Takeda global kinase panel
# [22] = biological target: Rho-associated protein kinase 2 (Homo sapiens, UniProt O75116); test: ROCK2(ROC2LGG1) Takeda global kinase panel
# Sequence of Rho-associated protein kinase 2 (O75116 whole entry): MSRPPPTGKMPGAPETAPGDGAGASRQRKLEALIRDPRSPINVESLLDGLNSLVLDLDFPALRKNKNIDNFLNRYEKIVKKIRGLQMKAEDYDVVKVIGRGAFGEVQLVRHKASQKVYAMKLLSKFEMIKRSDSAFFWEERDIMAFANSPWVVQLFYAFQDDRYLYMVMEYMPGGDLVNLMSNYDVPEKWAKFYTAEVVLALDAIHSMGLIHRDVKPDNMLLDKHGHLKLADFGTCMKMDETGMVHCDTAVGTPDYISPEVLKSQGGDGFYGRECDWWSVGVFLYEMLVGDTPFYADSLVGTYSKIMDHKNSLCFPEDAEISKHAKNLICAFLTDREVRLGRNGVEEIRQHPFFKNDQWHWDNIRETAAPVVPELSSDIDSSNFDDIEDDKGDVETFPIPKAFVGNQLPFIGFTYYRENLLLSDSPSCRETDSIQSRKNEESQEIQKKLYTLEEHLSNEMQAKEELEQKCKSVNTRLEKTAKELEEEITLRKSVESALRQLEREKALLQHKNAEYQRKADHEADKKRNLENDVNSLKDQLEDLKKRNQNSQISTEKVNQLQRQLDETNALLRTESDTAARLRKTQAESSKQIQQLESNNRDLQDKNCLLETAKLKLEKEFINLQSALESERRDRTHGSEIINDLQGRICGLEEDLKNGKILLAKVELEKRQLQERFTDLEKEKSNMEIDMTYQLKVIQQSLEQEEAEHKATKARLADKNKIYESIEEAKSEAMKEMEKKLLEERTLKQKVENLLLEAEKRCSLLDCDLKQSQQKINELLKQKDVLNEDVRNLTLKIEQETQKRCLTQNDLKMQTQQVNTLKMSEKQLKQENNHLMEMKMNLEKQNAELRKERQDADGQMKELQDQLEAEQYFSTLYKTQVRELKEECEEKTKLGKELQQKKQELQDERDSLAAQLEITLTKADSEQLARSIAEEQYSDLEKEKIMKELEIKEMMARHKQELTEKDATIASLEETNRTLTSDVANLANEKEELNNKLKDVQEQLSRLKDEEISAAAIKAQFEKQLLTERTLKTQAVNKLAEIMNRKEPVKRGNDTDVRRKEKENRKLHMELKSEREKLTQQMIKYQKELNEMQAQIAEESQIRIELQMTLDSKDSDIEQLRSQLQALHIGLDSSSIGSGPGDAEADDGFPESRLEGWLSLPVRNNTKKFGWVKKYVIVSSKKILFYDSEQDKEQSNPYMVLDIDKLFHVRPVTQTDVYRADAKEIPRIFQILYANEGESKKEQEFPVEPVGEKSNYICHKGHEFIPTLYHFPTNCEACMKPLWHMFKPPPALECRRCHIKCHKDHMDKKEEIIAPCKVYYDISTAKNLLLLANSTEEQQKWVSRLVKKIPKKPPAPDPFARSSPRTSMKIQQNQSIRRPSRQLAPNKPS
# [23] = biological target: STE20-related kinase adapter protein alpha (Homo sapiens, UniProt Q7RTN6); test: STLK5(STRAPHD1) Takeda global kinase panel
# TGF-beta receptor type-2 = TGF-beta receptor type-2 (Homo sapiens, UniProt P37173); test: TGFbetaR2(TGF2LGY1) Takeda global kinase panel
# [24] = biological target: Tyrosine-protein kinase TXK (Homo sapiens, UniProt P42681); test: TXK(TXK1CGD5) Takeda global kinase panel
# [25] = biological target: Serine/threonine-protein kinase VRK1 (Homo sapiens, UniProt Q99986); test: VRK1(VRK1LGRI) Takeda global kinase panel
# [26] = biological target: Cyclin-dependent kinase 11A (Homo sapiens, UniProt Q9UQ88); test: CDK11A(C11ALGS1) Takeda global kinase panel
# [27] = biological target: Bromodomain-containing protein 4 (Homo sapiens, UniProt O60885); test: BRD4(BRD4LGRC) Takeda global kinase panel
# [28] = biological target: 5-hydroxytryptamine receptor 2A (Homo sapiens, UniProt P28223); settings: Compound concentration 10.0 uM
# Sequence of 5-hydroxytryptamine receptor 2A (P28223 whole entry): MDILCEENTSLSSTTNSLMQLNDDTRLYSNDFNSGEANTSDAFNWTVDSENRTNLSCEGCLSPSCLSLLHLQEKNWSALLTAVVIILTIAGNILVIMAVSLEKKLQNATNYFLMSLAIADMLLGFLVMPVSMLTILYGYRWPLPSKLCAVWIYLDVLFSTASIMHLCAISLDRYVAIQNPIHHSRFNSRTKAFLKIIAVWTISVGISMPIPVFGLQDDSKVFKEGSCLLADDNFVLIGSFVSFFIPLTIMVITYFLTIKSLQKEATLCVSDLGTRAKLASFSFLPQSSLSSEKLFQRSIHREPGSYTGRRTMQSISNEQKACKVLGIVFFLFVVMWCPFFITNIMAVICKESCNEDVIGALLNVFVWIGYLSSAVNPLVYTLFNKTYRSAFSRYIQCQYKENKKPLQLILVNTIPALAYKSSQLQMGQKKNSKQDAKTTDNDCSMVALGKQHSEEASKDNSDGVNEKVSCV
# [29] = biological target: D(4) dopamine receptor (Homo sapiens) (UniProt P21917); settings: Compound concentration 10.0 uM
# [30] = biological target: Sodium-dependent noradrenaline transporter (Homo sapiens) (UniProt P23975); settings: Compound concentration 10.0 uM
# Sequence of Sodium-dependent noradrenaline transporter (Homo sapiens) (P23975 whole entry): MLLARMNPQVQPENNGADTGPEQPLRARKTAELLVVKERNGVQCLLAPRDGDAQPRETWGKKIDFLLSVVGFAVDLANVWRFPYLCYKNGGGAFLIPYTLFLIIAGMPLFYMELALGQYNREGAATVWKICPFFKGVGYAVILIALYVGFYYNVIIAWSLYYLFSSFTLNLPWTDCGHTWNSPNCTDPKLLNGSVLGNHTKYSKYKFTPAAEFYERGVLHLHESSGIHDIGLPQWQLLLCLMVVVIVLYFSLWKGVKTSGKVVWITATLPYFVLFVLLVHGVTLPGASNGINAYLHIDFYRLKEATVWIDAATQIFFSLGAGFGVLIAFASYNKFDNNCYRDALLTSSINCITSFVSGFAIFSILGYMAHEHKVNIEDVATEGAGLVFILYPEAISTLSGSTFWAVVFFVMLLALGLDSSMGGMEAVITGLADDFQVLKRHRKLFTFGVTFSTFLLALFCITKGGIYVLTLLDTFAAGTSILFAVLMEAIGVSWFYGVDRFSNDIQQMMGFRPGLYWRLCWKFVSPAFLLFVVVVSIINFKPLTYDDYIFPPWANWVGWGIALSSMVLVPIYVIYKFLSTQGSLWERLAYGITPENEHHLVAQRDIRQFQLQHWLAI
# [31] = biological target: Sodium-dependent dopamine transporter (Homo sapiens) (UniProt Q01959); settings: Compound concentration 10.0 uM
# [32] = biological target: Histamine H1 receptor (Homo sapiens) (UniProt P35367); settings: Compound concentration 10.0 uM
# [33] = biological target: Histamine H4 receptor (Homo sapiens) (UniProt Q9H3N8); settings: Compound concentration 10.0 uM
# [34] = biological target: Alpha-1A adrenergic receptor (Homo sapiens) (UniProt P35348); settings: Compound concentration 10.0 uM
# Sequence of Alpha-1A adrenergic receptor (Homo sapiens) (P35348 whole entry): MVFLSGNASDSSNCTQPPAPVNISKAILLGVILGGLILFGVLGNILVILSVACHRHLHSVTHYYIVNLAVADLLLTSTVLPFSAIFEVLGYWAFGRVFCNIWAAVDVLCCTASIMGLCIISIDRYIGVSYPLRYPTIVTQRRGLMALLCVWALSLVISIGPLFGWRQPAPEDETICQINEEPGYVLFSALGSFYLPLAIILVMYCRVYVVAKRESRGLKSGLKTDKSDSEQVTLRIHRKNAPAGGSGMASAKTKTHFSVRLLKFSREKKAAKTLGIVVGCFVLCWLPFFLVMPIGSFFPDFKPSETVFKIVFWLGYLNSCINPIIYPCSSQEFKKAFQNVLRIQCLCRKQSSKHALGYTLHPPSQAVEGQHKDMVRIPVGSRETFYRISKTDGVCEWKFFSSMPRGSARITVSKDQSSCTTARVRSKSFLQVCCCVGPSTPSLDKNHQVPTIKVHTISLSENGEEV
# [35] = biological target: Alpha-2A adrenergic receptor (Homo sapiens) (UniProt P08913); settings: Compound concentration 10.0 uM
# Sequence of Alpha-2A adrenergic receptor (Homo sapiens) (P08913 whole entry): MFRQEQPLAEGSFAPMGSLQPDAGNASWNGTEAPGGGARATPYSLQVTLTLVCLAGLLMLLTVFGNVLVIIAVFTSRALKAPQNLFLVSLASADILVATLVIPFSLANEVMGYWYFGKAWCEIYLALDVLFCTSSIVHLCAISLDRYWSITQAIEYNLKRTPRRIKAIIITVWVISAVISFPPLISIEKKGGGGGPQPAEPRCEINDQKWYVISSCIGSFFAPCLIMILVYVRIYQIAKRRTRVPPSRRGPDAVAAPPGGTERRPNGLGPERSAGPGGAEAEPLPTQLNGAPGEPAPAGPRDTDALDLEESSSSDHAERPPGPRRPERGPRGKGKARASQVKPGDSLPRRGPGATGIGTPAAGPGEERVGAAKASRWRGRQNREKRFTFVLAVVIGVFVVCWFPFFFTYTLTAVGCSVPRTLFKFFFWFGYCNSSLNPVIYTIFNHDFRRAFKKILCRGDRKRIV
# [36] = biological target: Beta-1 adrenergic receptor (Homo sapiens) (UniProt P08588); settings: Compound concentration 10.0 uM
# [37] = biological target: Muscarinic acetylcholine receptor M1 (Homo sapiens) (UniProt P11229); settings: Compound concentration 10.0 uM
# [38] = biological target: Muscarinic acetylcholine receptor M4 (Homo sapiens) (UniProt P08173); settings: Compound concentration 10.0 uM
# [39] = biological target: Sigma intracellular receptor 2 (Homo sapiens, UniProt Q5BJF2); settings: Compound concentration 10.0 uM
# Sequence of Sigma intracellular receptor 2 (Q5BJF2 whole entry): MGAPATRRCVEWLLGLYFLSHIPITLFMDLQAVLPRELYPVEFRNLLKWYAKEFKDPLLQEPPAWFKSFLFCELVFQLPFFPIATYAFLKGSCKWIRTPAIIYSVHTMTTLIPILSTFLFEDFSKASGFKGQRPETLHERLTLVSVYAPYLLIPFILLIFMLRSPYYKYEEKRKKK
# [40] = biological target: Adenosine receptor A1 (Homo sapiens) (UniProt P30542); settings: Compound concentration 10.0 uM
# [41] = biological target: B2 bradykinin receptor (Homo sapiens) (UniProt P30411); settings: Compound concentration 10.0 uM
# Sequence of B2 bradykinin receptor (Homo sapiens) (P30411 whole entry): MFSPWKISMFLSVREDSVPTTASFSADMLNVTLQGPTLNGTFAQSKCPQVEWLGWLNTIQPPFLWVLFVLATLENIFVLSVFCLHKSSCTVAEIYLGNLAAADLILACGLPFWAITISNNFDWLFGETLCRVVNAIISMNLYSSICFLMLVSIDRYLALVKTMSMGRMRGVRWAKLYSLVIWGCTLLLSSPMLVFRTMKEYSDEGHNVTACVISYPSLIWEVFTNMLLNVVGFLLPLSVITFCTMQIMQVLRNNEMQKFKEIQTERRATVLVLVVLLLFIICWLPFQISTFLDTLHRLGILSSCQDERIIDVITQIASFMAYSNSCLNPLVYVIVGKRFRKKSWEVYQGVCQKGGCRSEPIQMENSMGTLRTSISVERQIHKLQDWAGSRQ
# [42] = biological target: D(2) dopamine receptor (Homo sapiens) (UniProt P14416); settings: Compound concentration 10.0 uM
# Sequence of D(2) dopamine receptor (Homo sapiens) (P14416 whole entry): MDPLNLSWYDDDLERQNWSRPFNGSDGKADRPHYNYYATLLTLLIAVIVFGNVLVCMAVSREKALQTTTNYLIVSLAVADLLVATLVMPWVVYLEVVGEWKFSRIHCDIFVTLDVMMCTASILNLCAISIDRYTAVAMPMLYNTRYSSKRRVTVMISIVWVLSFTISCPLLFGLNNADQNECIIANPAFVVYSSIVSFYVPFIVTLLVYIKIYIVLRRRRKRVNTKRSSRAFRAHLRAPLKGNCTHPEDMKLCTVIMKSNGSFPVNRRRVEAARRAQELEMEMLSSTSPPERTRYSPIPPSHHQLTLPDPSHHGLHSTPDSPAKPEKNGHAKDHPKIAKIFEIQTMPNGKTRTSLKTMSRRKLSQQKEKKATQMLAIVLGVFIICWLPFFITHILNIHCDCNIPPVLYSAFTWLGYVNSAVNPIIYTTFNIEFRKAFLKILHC
# [43] = biological target: Histamine H2 receptor (Homo sapiens) (UniProt P25021); settings: Compound concentration 10.0 uM
structure (smiles),measurement,setting,value
CN1C(=O)[C@@H](N2CCc3c(nn(Cc4ccccc4)c3Br)C2=O)COc2ccccc21 [TP-030-2],inhibition,[1],5%
same,inhibition,[2],17%
same,inhibition,[3],2%
same,Ki,[4],0.00043 µM (active)
same,inhibition,[5],-2%
same,IC50,[6],1 µM
same,IC50,[7],1 µM
same,IC50,[8],1 µM
same,IC50,[9],1 µM
same,IC50,[10],1 µM
same,IC50,[11],1 µM
same,IC50,Ephrin type-B receptor 1,1 µM
same,IC50,[12],1 µM
same,IC50,[13],1 µM
same,IC50,[14],1 µM
same,IC50,[15],1 µM
same,IC50,[16],1 µM
same,IC50,LIM domain kinase 1,1 µM
same,IC50,[17],1 µM
same,IC50,[18],1 µM
same,IC50,[19],1 µM
same,IC50,[20],1 µM
same,IC50,[21],1 µM
same,IC50,[22],1 µM
same,IC50,[23],1 µM
same,IC50,TGF-beta receptor type-2,1 µM
same,IC50,[24],1 µM
same,IC50,[25],1 µM
same,IC50,[26],1 µM
same,IC50,[27],1 µM
same,inhibition,[28],50.6%
same,inhibition,[29],8.9%
same,inhibition,[30],-7.47%
same,inhibition,[31],-8.33%
same,inhibition,[32],9.99%
same,inhibition,[33],14.7%
same,inhibition,[34],-4.83%
same,inhibition,[35],68%
same,inhibition,[36],12%
same,inhibition,[37],21.6%
same,inhibition,[38],11.7%
same,inhibition,[39],53.9%
same,inhibition,[40],11%
same,inhibition,[41],0%
same,inhibition,[42],3%
same,inhibition,[43],-8%
